Data reported in PubChem BioAssay (NCI).
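96-well plates; 48 h exposure; 5 concentrations. Endpoints by linear interpolation between flanking doses. Not reached: highest tested concentration assigned. At the GI50, growth is halved. TGI is the concentration that stops growth completely.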

Assays:
Experiment in all cases: NCI tumour cell line growth inhibition, 48 h
KM12 colon = system: KM12 colon
SF-268 CNS = system: SF-268 CNS
HCT-116 colon = system: HCT-116 colon
SW-620 colon = system: SW-620 colon
SN12C renal = system: SN12C renal
EKVX NSCLC = system: EKVX NSCLC
TK-10 renal = system: TK-10 renal
T-47D breast = system: T-47D breast
HOP-92 NSCLC = system: HOP-92 NSCLC
MDA-MB-231 breast = system: MDA-MB-231 breast
SF-539 CNS = system: SF-539 CNS
SNB-19 CNS = system: SNB-19 CNS
OVCAR-8 ovarian = system: OVCAR-8 ovarian
786-0 renal = system: 786-0 renal
A549 NSCLC = system: A549 NSCLC
A498 renal = system: A498 renal
ACHN renal = system: ACHN renal
NCI-H522 lung = system: NCI-H522 lung
BT-549 breast = system: BT-549 breast
MDA-MB-435 = system: MDA-MB-435
M14 melanoma = system: M14 melanoma
K-562 leukemia = system: K-562 leukemia
UO-31 renal = system: UO-31 renal
HOP-62 NSCLC = system: HOP-62 NSCLC
HL-60(TB) leukemia = system: HL-60(TB) leukemia
LOX IMVI melanoma = system: LOX IMVI melanoma
U251 CNS = system: U251 CNS
OVCAR-3 ovarian = system: OVCAR-3 ovarian
COLO 205 colon = system: COLO 205 colon
PC-3 prostate = system: PC-3 prostate
MOLT-4 leukemia = system: MOLT-4 leukemia
SK-OV-3 ovarian = system: SK-OV-3 ovarian
RPMI-8226 leukemia = system: RPMI-8226 leukemia
NCI-H226 lung = system: NCI-H226 lung
CCRF-CEM leukemia = system: CCRF-CEM leukemia
MCF7 breast = system: MCF7 breast
UACC-62 melanoma = system: UACC-62 melanoma
SK-MEL-2 melanoma = system: SK-MEL-2 melanoma
CAKI-1 renal = system: CAKI-1 renal
UACC-257 melanoma = system: UACC-257 melanoma
HS 578T breast = system: HS 578T breast
SF-295 CNS = system: SF-295 CNS
IGROV1 ovarian = system: IGROV1 ovarian
HCT-15 colon = system: HCT-15 colon
DU-145 prostate = system: DU-145 prostate
SK-MEL-5 melanoma = system: SK-MEL-5 melanoma
SR leukemia = system: SR leukemia
NCI-H460 lung = system: NCI-H460 lung
RXF 393 renal = system: RXF 393 renal
OVCAR-4 ovarian = system: OVCAR-4 ovarian
HCC-2998 colon = system: HCC-2998 colon
MALME-3M melanoma = system: MALME-3M melanoma
NCI/ADR-RES ovarian = system: NCI/ADR-RES ovarian
HT29 colon = system: HT29 colon
NCI-H23 lung = system: NCI-H23 lung
OVCAR-5 ovarian = system: OVCAR-5 ovarian
SK-MEL-28 melanoma = system: SK-MEL-28 melanoma
SNB-75 CNS = system: SNB-75 CNS

O=C(Nc1ccc(Cl)cc1Cl)c1ccc(NC2=C(Cl)C(=O)N(Cc3ccccc3)C2=O)cc1
GI50 (KM12 colon): 21.1 µM
TGI (KM12 colon): 64.4 µM
GI50 (SF-268 CNS): 16.5 µM
TGI (SF-268 CNS): 36.6 µM
GI50 (HCT-116 colon): 34.2 µM
TGI (HCT-116 colon): > 100 µM
GI50 (SW-620 colon): 34 µM
TGI (SW-620 colon): > 100 µM
GI50 (SN12C renal): 20.3 µM
TGI (SN12C renal): 42.8 µM
GI50 (EKVX NSCLC): 21.7 µM
TGI (EKVX NSCLC): 46.1 µM
GI50 (TK-10 renal): 25.5 µM
TGI (TK-10 renal): 81.9 µM
GI50 (T-47D breast): 23.4 µM
TGI (T-47D breast): > 100 µM
GI50 (HOP-92 NSCLC): 13.1 µM
TGI (HOP-92 NSCLC): 26.7 µM
GI50 (MDA-MB-231 breast): 17.4 µM
TGI (MDA-MB-231 breast): 31.2 µM
GI50 (SF-539 CNS): 18.9 µM
TGI (SF-539 CNS): 33.1 µM
GI50 (SNB-19 CNS): 17.9 µM
TGI (SNB-19 CNS): 31.9 µM
GI50 (OVCAR-8 ovarian): 12.8 µM
TGI (OVCAR-8 ovarian): 25.4 µM
GI50 (786-0 renal): 21.6 µM
TGI (786-0 renal): > 100 µM
GI50 (A549 NSCLC): 25.9 µM
TGI (A549 NSCLC): 66.1 µM
GI50 (A498 renal): 31.3 µM
TGI (A498 renal): 79.7 µM
GI50 (ACHN renal): 18.9 µM
TGI (ACHN renal): 33.7 µM
GI50 (NCI-H522 lung): 31.6 µM
TGI (NCI-H522 lung): > 100 µM
GI50 (BT-549 breast): 15.6 µM
TGI (BT-549 breast): 30 µM
GI50 (MDA-MB-435): 32.5 µM
TGI (MDA-MB-435): > 100 µM
GI50 (M14 melanoma): 64.6 µM
TGI (M14 melanoma): > 100 µM
GI50 (K-562 leukemia): 6.24 µM
TGI (K-562 leukemia): 18.4 µM
GI50 (UO-31 renal): 3.56 µM
TGI (UO-31 renal): > 100 µM
GI50 (HOP-62 NSCLC): 20.2 µM
TGI (HOP-62 NSCLC): 40.5 µM
GI50 (HL-60(TB) leukemia): 2.5 µM
TGI (HL-60(TB) leukemia): 9.01 µM
GI50 (LOX IMVI melanoma): 6.6 µM
TGI (LOX IMVI melanoma): 19.1 µM
GI50 (U251 CNS): 12.2 µM
TGI (U251 CNS): 24.5 µM
GI50 (OVCAR-3 ovarian): 16.3 µM
TGI (OVCAR-3 ovarian): 33.5 µM
GI50 (COLO 205 colon): 16.3 µM
TGI (COLO 205 colon): 38.8 µM
GI50 (PC-3 prostate): 13.4 µM
TGI (PC-3 prostate): 26.2 µM
GI50 (MOLT-4 leukemia): 3.57 µM
TGI (MOLT-4 leukemia): 11.3 µM
GI50 (SK-OV-3 ovarian): 30.3 µM
TGI (SK-OV-3 ovarian): 78.8 µM
GI50 (RPMI-8226 leukemia): 2.84 µM
TGI (RPMI-8226 leukemia): 9.04 µM
GI50 (NCI-H226 lung): 20.5 µM
TGI (NCI-H226 lung): 45.8 µM
GI50 (CCRF-CEM leukemia): 1.99 µM
TGI (CCRF-CEM leukemia): 6.84 µM
GI50 (MCF7 breast): 5.91 µM
TGI (MCF7 breast): 30.6 µM
GI50 (UACC-62 melanoma): 18.6 µM
TGI (UACC-62 melanoma): 35.3 µM
GI50 (SK-MEL-2 melanoma): 54.1 µM
TGI (SK-MEL-2 melanoma): > 100 µM
GI50 (CAKI-1 renal): 26.4 µM
TGI (CAKI-1 renal): 63.5 µM
GI50 (UACC-257 melanoma): 26.2 µM
TGI (UACC-257 melanoma): 71.8 µM
GI50 (HS 578T breast): 23.5 µM
TGI (HS 578T breast): 47 µM
GI50 (SF-295 CNS): 19.5 µM
TGI (SF-295 CNS): 38.1 µM
GI50 (IGROV1 ovarian): 12.2 µM
TGI (IGROV1 ovarian): > 100 µM
GI50 (HCT-15 colon): 16.8 µM
TGI (HCT-15 colon): > 100 µM
GI50 (DU-145 prostate): 18.7 µM
TGI (DU-145 prostate): 39.4 µM
GI50 (SK-MEL-5 melanoma): 20.6 µM
TGI (SK-MEL-5 melanoma): 65.8 µM
GI50 (SR leukemia): 1.35 µM
TGI (SR leukemia): 3.12 µM
GI50 (NCI-H460 lung): 15.8 µM
TGI (NCI-H460 lung): 37.9 µM
GI50 (RXF 393 renal): 17.6 µM
TGI (RXF 393 renal): 38.8 µM

COc1ccc(-c2[nH]ncc2-c2cc3c(c(OC)c2)OCC(=O)N3)cc1
GI50 (KM12 colon): 0.36 µM
TGI (KM12 colon): 32.8 µM
GI50 (SF-268 CNS): 0.935 µM
TGI (SF-268 CNS): > 100 µM
GI50 (OVCAR-4 ovarian): 2.91 µM
TGI (OVCAR-4 ovarian): 77.9 µM
GI50 (HCT-116 colon): 0.403 µM
TGI (HCT-116 colon): > 100 µM
GI50 (SW-620 colon): 0.356 µM
TGI (SW-620 colon): > 54 µM
GI50 (SN12C renal): 0.63 µM
TGI (SN12C renal): > 100 µM
GI50 (EKVX NSCLC): 0.675 µM
TGI (EKVX NSCLC): > 33.7 µM
GI50 (HCC-2998 colon): 1.14 µM
TGI (HCC-2998 colon): 27 µM
GI50 (TK-10 renal): 7.59 µM
TGI (TK-10 renal): > 100 µM
GI50 (MALME-3M melanoma): 2.75 µM
TGI (MALME-3M melanoma): 99.1 µM
GI50 (T-47D breast): 0.406 µM
TGI (T-47D breast): 42.9 µM
GI50 (HOP-92 NSCLC): 1.11 µM
TGI (HOP-92 NSCLC): 99.7 µM
GI50 (MDA-MB-231 breast): 1.21 µM
TGI (MDA-MB-231 breast): > 100 µM
GI50 (SF-539 CNS): 0.372 µM
TGI (SF-539 CNS): 2.16 µM
GI50 (NCI/ADR-RES ovarian): 1.43 µM
TGI (NCI/ADR-RES ovarian): 29.2 µM
GI50 (SNB-19 CNS): 0.619 µM
TGI (SNB-19 CNS): > 100 µM
GI50 (OVCAR-8 ovarian): 1.17 µM
TGI (OVCAR-8 ovarian): > 50.1 µM
GI50 (786-0 renal): 1.21 µM
TGI (786-0 renal): > 100 µM
GI50 (HT29 colon): 0.378 µM
TGI (HT29 colon): > 100 µM
GI50 (A549 NSCLC): 1.44 µM
TGI (A549 NSCLC): > 100 µM
GI50 (A498 renal): 0.17 µM
TGI (A498 renal): 0.646 µM
GI50 (ACHN renal): 0.85 µM
TGI (ACHN renal): > 100 µM
GI50 (NCI-H522 lung): 0.247 µM
TGI (NCI-H522 lung): 6.33 µM
GI50 (BT-549 breast): 0.469 µM
TGI (BT-549 breast): 41.5 µM
GI50 (NCI-H23 lung): 1.46 µM
TGI (NCI-H23 lung): > 77.7 µM
GI50 (M14 melanoma): 0.384 µM
TGI (M14 melanoma): > 89.2 µM
GI50 (OVCAR-5 ovarian): 2.17 µM
TGI (OVCAR-5 ovarian): > 100 µM
GI50 (K-562 leukemia): 0.309 µM
TGI (K-562 leukemia): > 100 µM
GI50 (UO-31 renal): 1.44 µM
TGI (UO-31 renal): 53.8 µM
GI50 (HOP-62 NSCLC): 0.544 µM
TGI (HOP-62 NSCLC): 80.3 µM
GI50 (HL-60(TB) leukemia): 0.352 µM
TGI (HL-60(TB) leukemia): 2.06 µM
GI50 (LOX IMVI melanoma): 0.522 µM
TGI (LOX IMVI melanoma): > 100 µM
GI50 (U251 CNS): 0.481 µM
TGI (U251 CNS): > 100 µM
GI50 (OVCAR-3 ovarian): 0.36 µM
TGI (OVCAR-3 ovarian): 49 µM
GI50 (COLO 205 colon): 0.465 µM
TGI (COLO 205 colon): 12.8 µM
GI50 (PC-3 prostate): 0.538 µM
TGI (PC-3 prostate): > 100 µM
GI50 (MOLT-4 leukemia): 0.528 µM
TGI (MOLT-4 leukemia): > 34.6 µM
GI50 (SK-OV-3 ovarian): 0.715 µM
TGI (SK-OV-3 ovarian): > 100 µM
GI50 (RPMI-8226 leukemia): 0.796 µM
TGI (RPMI-8226 leukemia): 18.9 µM
GI50 (NCI-H226 lung): 1.66 µM
TGI (NCI-H226 lung): 41.5 µM
GI50 (CCRF-CEM leukemia): 0.398 µM
TGI (CCRF-CEM leukemia): > 100 µM
GI50 (MCF7 breast): 0.315 µM
TGI (MCF7 breast): 62.4 µM
GI50 (UACC-62 melanoma): 0.621 µM
TGI (UACC-62 melanoma): 20.8 µM
GI50 (SK-MEL-2 melanoma): 0.564 µM
TGI (SK-MEL-2 melanoma): 81.6 µM
GI50 (CAKI-1 renal): 0.556 µM
TGI (CAKI-1 renal): > 63.3 µM
GI50 (UACC-257 melanoma): 3.23 µM
TGI (UACC-257 melanoma): > 72.4 µM
GI50 (HS 578T breast): 0.298 µM
TGI (HS 578T breast): 2.24 µM
GI50 (SF-295 CNS): 0.398 µM
TGI (SF-295 CNS): 15.2 µM
GI50 (IGROV1 ovarian): 0.674 µM
TGI (IGROV1 ovarian): > 100 µM
GI50 (HCT-15 colon): 0.457 µM
TGI (HCT-15 colon): > 100 µM
GI50 (SK-MEL-28 melanoma): 5.19 µM
TGI (SK-MEL-28 melanoma): > 100 µM
GI50 (DU-145 prostate): 1.18 µM
TGI (DU-145 prostate): > 100 µM
GI50 (SK-MEL-5 melanoma): 0.595 µM
TGI (SK-MEL-5 melanoma): 12.8 µM
GI50 (SNB-75 CNS): 0.196 µM
TGI (SNB-75 CNS): 0.797 µM
GI50 (SR leukemia): 0.285 µM
TGI (SR leukemia): > 47.7 µM
GI50 (NCI-H460 lung): 0.365 µM
TGI (NCI-H460 lung): 4.79 µM
GI50 (RXF 393 renal): 0.392 µM
TGI (RXF 393 renal): 2.55 µM
